Patent publication US9765067B2, “Thiophen-2-yl-pyridin-2-yl-1H-pyrazole-4-carboxylic acid derivatives and the use thereof as soluble guanylate cyclase activators” (Novartis AG, priority 2014, dated 2017)

biological target: T1, soluble guanylate cyclase (human GUCYA3/GUCYB3) overexpressed in CHO cells (Homo sapiens, UniProt Q02108+Q02153); assay: CHO cellular assay (cGMP production, HTRF); type: cell-based; details: CHO K1 clone 8E10 overexpressing human sGC, Cisbio HTRF, 1 h room temperature, 1 mM IBMX, 20 uM ODQ, minimum quantification limit 0.5 nM
T1 construct: expressed in transfected cells
T1 sequence (Q02108 1-690 partner): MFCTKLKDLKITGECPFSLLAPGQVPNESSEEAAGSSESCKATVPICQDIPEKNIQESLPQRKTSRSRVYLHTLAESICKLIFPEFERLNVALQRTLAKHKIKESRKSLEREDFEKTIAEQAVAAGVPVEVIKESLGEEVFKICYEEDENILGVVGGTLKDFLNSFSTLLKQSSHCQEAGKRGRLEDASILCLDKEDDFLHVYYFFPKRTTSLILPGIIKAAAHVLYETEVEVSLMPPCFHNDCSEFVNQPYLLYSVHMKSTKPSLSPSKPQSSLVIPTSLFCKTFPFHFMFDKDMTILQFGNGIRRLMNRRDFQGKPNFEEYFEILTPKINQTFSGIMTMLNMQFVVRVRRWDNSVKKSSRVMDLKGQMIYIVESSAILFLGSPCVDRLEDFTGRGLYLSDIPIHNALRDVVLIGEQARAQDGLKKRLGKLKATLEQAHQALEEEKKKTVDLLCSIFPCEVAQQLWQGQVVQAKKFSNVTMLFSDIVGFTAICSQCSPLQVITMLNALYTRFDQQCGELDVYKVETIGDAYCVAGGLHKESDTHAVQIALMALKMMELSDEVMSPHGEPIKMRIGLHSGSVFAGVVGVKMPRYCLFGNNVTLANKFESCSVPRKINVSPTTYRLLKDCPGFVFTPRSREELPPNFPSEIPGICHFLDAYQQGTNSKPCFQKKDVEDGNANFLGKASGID
T1 sequence (Q02153 1-619): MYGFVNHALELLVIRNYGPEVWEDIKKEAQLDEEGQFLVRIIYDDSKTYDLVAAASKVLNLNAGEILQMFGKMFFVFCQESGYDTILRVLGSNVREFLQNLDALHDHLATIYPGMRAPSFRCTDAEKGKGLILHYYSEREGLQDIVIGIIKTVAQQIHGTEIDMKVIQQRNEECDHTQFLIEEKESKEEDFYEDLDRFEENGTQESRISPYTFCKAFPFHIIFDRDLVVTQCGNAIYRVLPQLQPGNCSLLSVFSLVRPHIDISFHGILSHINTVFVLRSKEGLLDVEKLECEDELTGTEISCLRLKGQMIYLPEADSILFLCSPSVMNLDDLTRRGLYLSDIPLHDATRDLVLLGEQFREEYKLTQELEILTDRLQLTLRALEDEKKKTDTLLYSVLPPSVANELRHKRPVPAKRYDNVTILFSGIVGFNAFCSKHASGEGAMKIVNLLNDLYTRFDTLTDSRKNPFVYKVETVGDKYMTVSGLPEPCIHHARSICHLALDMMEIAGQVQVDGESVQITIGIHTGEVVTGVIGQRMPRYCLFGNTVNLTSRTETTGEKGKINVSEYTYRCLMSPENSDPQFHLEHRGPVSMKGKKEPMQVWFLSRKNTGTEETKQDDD
Source text: Chinese hamster ovary (CHO) cells overexpressing soluble guanylate cyclase were generated to test the effect of sGC activators in a cellular context. Human cDNAs for GUCYA3 (RefSeq: NM_000856.3) and GUCYB3 (RefSeq: NM_000857.1) were amplified by PCR from a HUVEC (Human Umbilical Vein Endothelial Cells) cDNA library and cloned into mammalian expression vectors. CHO K1 cells (ATCC CCL-61) were transfected using Lipofectamine 2000 following manufacturer's instructions and stably expressing clones were identified by antibiotic selection. CHO GUCY clone 8E10 was used for subsequent experiments.
Cells were seeded at a density of 3000 cells/well in white 384-well proxyplates (Perkin Elmer) and incubated overnight, then the medium was removed and cells were washed with assay buffer (HBSS, 0.1% BSA, 1 mM IBMX, 20 uM ODQ). sGC activators were serially diluted in DMSO, then diluted in assay buffer prior to adding to cells (10 ul/well, final DMSO concentration 0.5%). Cells were incubated with compounds for 1 h room temperature, then assayed for cGMP production using Cisbio cGMP HTRF kit (62GM2PEC) according to manufacturer's instructions.
The EC50s are calculated based on the amount of cGMP interpolated from the standard curve, using a 4-parameter sigmoidal dose-response.

SMILES	EC50 [nM]
Cc1c(OCc2ccsc2-c2cccc(-n3ncc(C(=O)O)c3C(F)(F)F)n2)ccc(C2CCN(C(=O)C3CC3)CC2)c1C [Example 6-2, 1-(6-(3-((4-(1-(Cyclopropanecarbonyl)piperidin-4-yl)-2,3-dimethylphenoxy)methyl)thiophen-2-yl)pyridin-2-yl)-5-(trifluoromethyl)-1H-pyrazole-4-carboxylic acid]	33
COc1cc(C2CCN(C(=O)C3CC3)CC2)ccc1OCc1ccsc1-c1cccc(-n2ncc(C(=O)O)c2C(F)(F)F)n1 [Example 6-4, 1-(6-(3-((4-(1-(Cyclopropanecarbonyl)piperidin-4-yl)-2-methoxyphenoxy)methyl)thiophen-2-yl)pyridin-2-yl)-5-(trifluoromethyl)-1H-pyrazole-4-carboxylic acid]	2
Cc1cc(C2CCN(C(=O)C3CC3)CC2)ccc1OCc1cc(C2CC2)sc1-c1cccc(-n2ncc(C(=O)O)c2C(F)(F)F)n1 [Example 6-7, 1-(6-(3-((4-(1-(Cyclopropanecarbonyl)piperidin-4-yl)-2-methylphenoxy)methyl)-5-cyclopropylthiophen-2-yl)pyridin-2-yl)-5-(trifluoromethyl)-1H-pyrazole-4-carboxylic acid]	1.4
Cc1cc(COc2ccc(C3CCN(C(=O)C4CC4)CC3)c(C(C)C)c2)c(-c2cccc(-n3ncc(C(=O)O)c3C(F)(F)F)n2)s1 [Example 6-12, 1-(6-(3-((4-(1-(Cyclopropanecarbonyl)piperidin-4-yl)-3-isopropylphenoxy)methyl)-5-methylthiophen-2-yl)pyridin-2-yl)-5-(trifluoromethyl)-1H-pyrazole-4-carboxylic acid]	1
Cc1cc(COc2ccc(C3CCN(C(=O)C4CC4)CC3)cc2F)c(-c2cccc(-n3ncc(C(=O)O)c3C(F)(F)F)n2)s1 [Example 6-13, 1-(6-(3-((4-(1-(Cyclopropanecarbonyl)piperidin-4-yl)-2-fluorophenoxy)methyl)-5-methylthiophen-2-yl)pyridin-2-yl)-5-(trifluoromethyl)-1H-pyrazole-4-carboxylic acid]	1
Cc1cc(COc2ccc(C3CCN(C(=O)C4CC4)CC3)c(F)c2)c(-c2cccc(-n3ncc(C(=O)O)c3C(F)(F)F)n2)s1 [Example 6-14, 1-(6-(3-((4-(1-(Cyclopropanecarbonyl)piperidin-4-yl)-3-fluorophenoxy)methyl)-5-methylthiophen-2-yl)pyridin-2-yl)-5-(trifluoromethyl)-1H-pyrazole-4-carboxylic acid]	3
CCc1cc(C2CCN(C(=O)C3CC3)CC2)ccc1OCc1cc(C)sc1-c1cccc(-n2ncc(C(=O)O)c2C(F)(F)F)n1 [Example 6-15, 1-(6-(3-((4-(1-(Cyclopropanecarbonyl)piperidin-4-yl)-2-ethylphenoxy)methyl)-5-methylthiophen-2-yl)pyridin-2-yl)-5-(trifluoromethyl)-1H-pyrazole-4-carboxylic acid]	9.5
Cc1cc(COc2ccc(C3CCN(CC(F)(F)F)CC3)cc2C)c(-c2cccc(-n3ncc(C(=O)O)c3C(F)(F)F)n2)s1 [Example 6-16, 1-(6-(5-Methyl-3-((2-methyl-4-(1-(2,2,2-trifluoroethyl)piperidin-4-yl)phenoxy)methyl)thiophen-2-yl)pyridin-2-yl)-5-(trifluoromethyl)-1H-pyrazole-4-carboxylic acid]	6.3
CCc1cc(COc2ccc(C3CCN(CC(F)(F)F)CC3)cc2C)c(-c2cccc(-n3ncc(C(=O)O)c3C(F)(F)F)n2)s1 [Example 6-17, 1-(6-(5-Ethyl-3-((2-methyl-4-(1-(2,2,2-trifluoroethyl)piperidin-4-yl)phenoxy)methyl)thiophen-2-yl)pyridin-2-yl)-5-(trifluoromethyl)-1H-pyrazole-4-carboxylic acid]	14

Continued, values first:

EC50 [nM]	SMILES
1	Cc1cc(C2CCN(C(=O)C3CC3)CC2)ccc1OCc1ccsc1-c1cccc(-n2ncc(C(=O)O)c2C(F)(F)F)c1 [Example 6-1, 1-(3-(3-((4-(1-(Cyclopropanecarbonyl)piperidin-4-yl)-2-methylphenoxy)methyl)thiophen-2-yl)phenyl)-5-(trifluoromethyl)-1H-pyrazole-4-carboxylic acid]
≤ 0.5	Cc1cc(C2CCN(C(=O)C3CC3)CC2)ccc1OCc1cc(Cl)sc1-c1cccc(-n2ncc(C(=O)O)c2C(F)(F)F)n1 [Example 6-3, 1-(6-(5-Chloro-3-((4-(1-(cyclopropanecarbonyl)piperidin-4-yl)-2-methylphenoxy)methyl)thiophen-2-yl)pyridin-2-yl)-5-(trifluoromethyl)-1H-pyrazole-4-carboxylic acid]
1	COc1cc(OCc2ccsc2-c2cccc(-n3ncc(C(=O)O)c3C(F)(F)F)n2)ccc1C1CCN(C(=O)C2CC2)CC1 [Example 6-5, 1-(6-(3-((4-(1-(Cyclopropanecarbonyl)piperidin-4-yl)-3-methoxyphenoxy)methyl)thiophen-2-yl)pyridin-2-yl)-5-(trifluoromethyl)-1H-pyrazole-4-carboxylic acid]
≤ 0.5	CCc1cc(OCc2ccsc2-c2cccc(-n3ncc(C(=O)O)c3C(F)(F)F)n2)ccc1C1CCN(C(=O)C2CC2)CC1 [Example 6-6, 1-(6-(3-((4-(1-(Cyclopropanecarbonyl)piperidin-4-yl)-3-ethylphenoxy)methyl)thiophen-2-yl)pyridin-2-yl)-5-(trifluoromethyl)-1H-pyrazole-4-carboxylic acid]
≤ 0.5	Cc1cc(C2CCN(C(=O)C3CC3)CC2)ccc1OCc1c(-c2cccc(-n3ncc(C(=O)O)c3C(F)(F)F)n2)sc(C)c1C [Example 6-8, 1-(6-(3-((4-(1-(Cyclopropanecarbonyl)piperidin-4-yl)-2-methylphenoxy)methyl)-4,5-dimethylthiophen-2-yl)pyridin-2-yl)-5-(trifluoromethyl)-1H-pyrazole-4-carboxylic acid]
≤ 0.5	CCc1c(C(=O)O)cnn1-c1cccc(-c2sccc2COc2ccc(C3CCN(C(=O)C4CC4)CC3)cc2C)n1 [Example 6-9, 1-(6-(3-((4-(1-(Cyclopropanecarbonyl)piperidin-4-yl)-2-methylphenoxy)methyl)thiophen-2-yl)pyridin-2-yl)-5-ethyl-1H-pyrazole-4-carboxylic acid]
1	Cc1cc(COc2ccc(C3CC(C)(C)N(C(=O)C4CC4)C(C)(C)C3)cc2C)c(-c2cccc(-n3ncc(C(=O)O)c3C(F)(F)F)n2)s1 [Example 6-10, 1-(6-(3-((4-(1-(Cyclopropanecarbonyl)-2,2,6,6-tetramethylpiperidin-4-yl)-2-methylphenoxy)methyl)-5-methylthiophen-2-yl)pyridin-2-yl)-5-(trifluoromethyl)-1H-pyrazole-4-carboxylic acid]
≤ 0.5	CCc1cc(OCc2cc(C)sc2-c2cccc(-n3ncc(C(=O)O)c3C(F)(F)F)n2)ccc1C1CCN(C(=O)C2CC2)CC1 [Example 6-11, 1-(6-(3-((4-(1-(Cyclopropanecarbonyl)piperidin-4-yl)-3-ethylphenoxy)methyl)-5-methylthiophen-2-yl)pyridin-2-yl)-5-(trifluoromethyl)-1H-pyrazole-4-carboxylic acid]
